Tests used:
[1] = system: human colorectal carcinoma cell line HCT116; assay: In vivo inhibition of cancer cell proliferation in the mouse by intraperitoneal administration (HCT116 transplant); design: species or system Balb/c nude mice; conditions: 30 mg/kg intraperitoneal; for Weight changes over the administration time: nude mice
Method: First, female Balb/c nude mice (6 weeks old) were administered with the compound prepared in Example 2 via intraperitoneal injection. […] One week later, any change in the tumor size was observed by comparing the volume of the first formed tumor and the volume measured one week after. On the last day, the tumor was weighed. […] All the values of each measurement title were examined by t-test to investigate the statistical significance of the values obtained from the non-treated group, the group treated with the compound of Example 2, and the positive control group.

B16F10 melanoma cells = assay: Inhibition of metastasis in vivo in the test mouse (luciferase imaging); design: species or system C57BL/6 mice; conditions: for Weight changes over the administration time: C57BL/6 mice
Method: To evaluate the inhibition effect of the compound on metastasis, C57BL/6 mice were transplanted with B16F10 melanoma cells (2×10^6 cells/ml) expressing luciferase via intravenous injection (0.2 ml, 4×10^5 cells/mouse). One hour later, 50 μl of luciferin was administered to each mouse at the concentration of 15 mg/ml via intraperitoneal injection. Then, the compound prepared in Example 2 of the invention was intraperitoneally administered at the concentration of 50 mg/kg 13 times. […] The image of the mouse was photographed every day for 14 days with a live animal imaging system (PHOTON IMAGER, Biospace). On the last day of the experiment, the mouse was sacrificed by using CO2 gas. The lung was extracted from the mouse, and lung metastasis of the skin cancer cells was confirmed. To investigate toxicity, weight and other general symptoms were observed during the experimental period. At this time, all the values of each measurement title were examined by t-test for the statistical significance of the values obtained from the non-treated group, the group treated with the compound of Example 2, and the positive control group. The results are shown in Table 3, Table 4, FIG. 9, and FIG. 10.

Weight changes over the administration time (B16F10 melanoma cells; 0 day): 100.0 ± 0.0% | Weight changes over the administration time (B16F10 melanoma cells; 2 days): 100.9 ± 2.2% | Weight changes over the administration time (B16F10 melanoma cells; 4 days): 102.9 ± 2.0% | Weight changes over the administration time (B16F10 melanoma cells; 7 days): 103.0 ± 2.8% | Weight changes over the administration time (B16F10 melanoma cells; 9 days): 106.0 ± 3.1% | Weight changes over the administration time (B16F10 melanoma cells; 11 days): 105.4 ± 2.9% | Weight changes over the administration time (B16F10 melanoma cells; 14 days): 107.7 ± 3.3%
SMILES: CCN(CC)CCNC(=O)c1c(C)[nH]c(/C=C2\C(=O)Nc3ccc(F)cc32)c1C [sunitinib]
Inhibition rate of tumor growth (tumor volume) ([1]; 0 day): (0%) | Tumor volume over the administration time (Vt − Vo) ([1]; 0 day): 0.0 ± 0.0 | Weight changes over the administration time ([1]; 0 day): 100.0 ± 0.0% | Inhibition rate of tumor growth (tumor volume) ([1]; 2 days): (31.7%) | Weight changes over the administration time ([1]; 2 days): 100.5 ± 1.4% | Weight changes over the administration time ([1]; 4 days): 100.7 ± 2.0% | Tumor weight at final day ([1]; 7 days): 1064.9 ± 130.9 mg | Weight changes over the administration time ([1]; 7 days): 100.8 ± 3.3% | Image signals over the administration time (B16F10 melanoma cells; 0 day, live animal imaging): 857.2 ± 679.3 photons/s/sr | Image signals over the administration time (B16F10 melanoma cells; 4 days, live animal imaging, Example 2 50 mg/kg, sunitinib 30 mg/kg): 222.0 ± 146.1 photons/s/sr | Inhibition rate of tumor metastasis (image signals) (B16F10 melanoma cells; 9 days, live animal imaging): (19.9%) | Image signals over the administration time (B16F10 melanoma cells; 9 days, live animal imaging, Example 2 50 mg/kg, sunitinib 30 mg/kg): 47.5 ± 10.7 photons/s/sr | Image signal at final day (B16F10 melanoma cells; 14 days, extracted lung imaging, Example 2 50 mg/kg, sunitinib 30 mg/kg): 21738.7 ± 14939.0 | Image signals over the administration time (B16F10 melanoma cells; 14 days, live animal imaging, Example 2 50 mg/kg, sunitinib 30 mg/kg): 13084.0 ± 8931.2 photons/s/sr
